According to PubChem BioAssay (NCI):
Where “and” joins values, the source holds several entries; their conditions need not be identical. Equal values may be shown once.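 Assay format: 96-well plates, 48-hour exposure. Abbreviation: GI50, concentration required for 50% inhibition of growth. TGI denotes the concentration required for complete inhibition of growth.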

What was measured:
Experiment in all cases: NCI tumour cell line growth inhibition, 48 h
[1] = system: CCRF-CEM leukemia
[2] = system: K-562 leukemia
[3] = system: MOLT-4 leukemia
[4] = system: NCI/ADR-RES ovarian
[5] = system: OVCAR-3 ovarian
[6] = system: OVCAR-4 ovarian
[7] = system: RXF 393 renal
[8] = system: SK-MEL-5 melanoma
[9] = system: T-47D breast
[10] = system: TK-10 renal

O=C(NC1CCNCC1)c1[nH]ncc1NC(=O)c1c(Cl)cccc1Cl
GI50 [1]: 0.331 µM and 0.335 µM | TGI [1]: > 100 µM | GI50 [2]: 0.476 µM and 0.403 µM | TGI [2]: > 100 µM | GI50 [3]: 0.357 µM and 0.329 µM | TGI [3]: 1.49 µM and > 10 µM | GI50 [4]: > 100 µM | TGI [4]: > 100 µM | GI50 [5]: 0.325 µM and 0.386 µM | TGI [5]: > 27.9 µM | GI50 [6]: 0.402 µM and 0.383 µM | TGI [6]: 14 µM and > 10 µM | GI50 [7]: 0.236 µM and 0.202 µM | TGI [7]: 0.635 µM and 0.464 µM | GI50 [8]: 2.44 µM and 0.961 µM | TGI [8]: 7.67 µM and 5.53 µM | GI50 [9]: 1.18 µM and 1.01 µM | TGI [9]: > 100 µM | GI50 [10]: 1.49 µM and 1.44 µM | TGI [10]: 6.93 µM and > 10 µM

Nc1cccc2c1CN(C1CCC(=O)NC1=O)C2=O (centres undefined)
GI50 [1]: > 100 µM | TGI [1]: > 100 µM | GI50 [2]: > 100 µM | TGI [2]: > 100 µM | GI50 [3]: > 100 µM | TGI [3]: > 100 µM | GI50 [4]: > 100 µM | TGI [4]: > 100 µM | GI50 [5]: > 100 µM | TGI [5]: > 100 µM | GI50 [6]: > 100 µM | TGI [6]: > 100 µM | GI50 [7]: > 100 µM | TGI [7]: > 100 µM | GI50 [8]: > 100 µM | TGI [8]: > 100 µM | GI50 [9]: > 100 µM | TGI [9]: > 100 µM | GI50 [10]: > 100 µM | TGI [10]: > 100 µM

CS(=O)/C(C#N)=C\C=C\c1cccc(Cl)c1 (centres undefined)
GI50 [1]: 2.34 µM | TGI [1]: 18.7 µM | GI50 [2]: 2.51 µM | TGI [2]: > 100 µM | GI50 [3]: 2.54 µM | TGI [3]: 16.4 µM | GI50 [4]: 2.66 µM | TGI [4]: 37.7 µM | GI50 [5]: 2.45 µM | TGI [5]: 10.1 µM | GI50 [6]: 3.63 µM | TGI [6]: 21.1 µM | GI50 [7]: 2 µM | TGI [7]: 3.9 µM | GI50 [8]: 1.87 µM | TGI [8]: 3.96 µM | GI50 [9]: 2.67 µM | TGI [9]: 17 µM | GI50 [10]: 5.59 µM | TGI [10]: 17.5 µM

O=C1c2ccccc2C(=O)c2c(NCCNCCO)ccc(NCCNCCO)c21
GI50 [1]: 0.156 µM and 0.461 µM and 0.264 µM | TGI [1]: 14.6 µM and 11.1 µM | GI50 [2]: 2.47 µM and 2.08 µM and 2.38 µM | TGI [2]: > 32.1 µM and 33.3 µM and 11.4 µM | GI50 [3]: 0.151 µM and 0.142 µM and 0.167 µM | TGI [3]: 59.7 µM and 11.5 µM | GI50 [4]: 42.8 µM and 99.2 µM and > 100 µM | TGI [4]: > 100 µM | GI50 [5]: 2.41 µM and 2.86 µM and 2.72 µM | TGI [5]: 7.71 µM and 11.5 µM and 11 µM | GI50 [6]: 0.896 µM and 1.13 µM and 0.986 µM | TGI [6]: 4.87 µM and 4.02 µM and 4.54 µM | GI50 [7]: 0.322 µM and 2.43 µM and 1.92 µM | TGI [7]: 2 µM and 10.8 µM and 7.68 µM | GI50 [8]: 1.41 µM and 1.13 µM and 1.09 µM | TGI [8]: 3.34 µM and 2.87 µM and 2.86 µM | GI50 [9]: 1.14 µM and 1.67 µM and 1.25 µM | TGI [9]: 7.09 µM and 7.05 µM and 5.97 µM | GI50 [10]: 2.89 µM and 2.55 µM and 1.33 µM | TGI [10]: 24.6 µM and 22.5 µM and 8.88 µM

NS(=O)(=O)c1cccc(-c2cc3ccncc3cc2OCc2ccccc2)c1
GI50 [1]: 8.43 µM | TGI [1]: > 25 µM | GI50 [2]: 6.61 µM | TGI [2]: > 25 µM | GI50 [3]: 8.44 µM | TGI [3]: > 25 µM | GI50 [4]: 11.2 µM | TGI [4]: > 25 µM | GI50 [5]: 10.9 µM | TGI [5]: > 25 µM | GI50 [6]: 11.5 µM | TGI [6]: > 25 µM | GI50 [7]: 4.96 µM | TGI [7]: > 21.8 µM | GI50 [8]: 4.83 µM | TGI [8]: > 15.8 µM | GI50 [9]: 12.7 µM | TGI [9]: > 25 µM | GI50 [10]: 9.77 µM | TGI [10]: > 25 µM

Cc1ccc(C2NC(=S)N3C(c4ccc(C)cc4)NC(=S)N23)cc1 (centres undefined)
GI50 [1]: 2.46 µM | TGI [1]: 10.2 µM | GI50 [2]: 1.01 µM | TGI [2]: 12 µM | GI50 [3]: 5.82 µM | TGI [3]: 18.9 µM | GI50 [4]: 2.33 µM | TGI [4]: 6.19 µM | GI50 [5]: 3.26 µM | TGI [5]: 11.5 µM | GI50 [6]: 9.89 µM | TGI [6]: 21.9 µM | GI50 [7]: 3.27 µM | TGI [7]: 14.1 µM | GI50 [8]: 3.88 µM | TGI [8]: 14.3 µM | GI50 [9]: 5.24 µM | TGI [9]: 19.6 µM | GI50 [10]: 12.3 µM | TGI [10]: 26.9 µM

Nc1ncnc2c1nc(N)n2C1OC(CO)C(O)C1O (centres undefined)
GI50 [1]: 1.3 µM | TGI [1]: > 22.9 µM | GI50 [2]: 0.271 µM | TGI [2]: > 100 µM | GI50 [3]: 1.76 µM | TGI [3]: > 24.4 µM | GI50 [4]: 0.697 µM | TGI [4]: 3.29 µM | GI50 [5]: 0.892 µM | TGI [5]: 4.75 µM | GI50 [6]: 1.42 µM | TGI [6]: 7.16 µM | GI50 [7]: 1.45 µM | TGI [7]: 3.36 µM | GI50 [8]: 1.25 µM | TGI [8]: 2.61 µM | GI50 [9]: 0.449 µM | TGI [9]: 2.68 µM | GI50 [10]: 0.458 µM

CCCCCCCCCCCCNC(=O)[C@H]1CSC(c2cc(Br)cs2)N1 (some centres undefined)
GI50 [1]: 1.03 µM | TGI [1]: 2.51 µM | GI50 [2]: 1.13 µM | TGI [2]: 2.46 µM | GI50 [3]: 0.774 µM | TGI [3]: 1.76 µM | GI50 [4]: 1.11 µM | TGI [4]: 2.47 µM | GI50 [5]: 1.15 µM | TGI [5]: 2.38 µM | GI50 [6]: 0.917 µM | TGI [6]: 1.95 µM | GI50 [7]: 1.18 µM | TGI [7]: 2.6 µM | GI50 [8]: 5.57 µM | TGI [8]: 11.8 µM | GI50 [9]: 1.98 µM | TGI [9]: 8.66 µM | GI50 [10]: 0.951 µM | TGI [10]: 1.82 µM

COc1ccccc1N(C(C)=O)C1=C(Cl)C(=O)c2ccccc2C1=O
GI50 [1]: 1.95 µM | TGI [1]: 5.11 µM | GI50 [2]: 2.23 µM | TGI [2]: 7.67 µM | GI50 [3]: 2.94 µM | TGI [3]: > 25.1 µM | GI50 [4]: 2.52 µM | TGI [4]: 11.5 µM | GI50 [5]: 1.15 µM | TGI [5]: 2.72 µM | GI50 [6]: 0.875 µM | TGI [6]: 2.14 µM | GI50 [7]: 1.12 µM | TGI [7]: 2.45 µM | GI50 [8]: 1.19 µM | TGI [8]: 2.63 µM | GI50 [9]: 0.382 µM | TGI [9]: 2.95 µM | GI50 [10]: 1.87 µM | TGI [10]: 3.3 µM

N#Cc1ccc(N2Cc3cc(Cl)ccc3OC3=C2C(=O)N(Cc2ccc(F)cc2)C3=O)cc1
GI50 [1]: 0.229 µM | TGI [1]: 1.09 µM | GI50 [2]: 0.313 µM | TGI [2]: 1.68 µM | GI50 [3]: 0.291 µM | TGI [3]: 1.26 µM | GI50 [4]: 0.85 µM | TGI [4]: 8.58 µM | GI50 [5]: 0.494 µM | TGI [5]: 0.96 µM | GI50 [6]: 0.206 µM | TGI [6]: 0.563 µM | GI50 [7]: 0.481 µM | TGI [7]: 0.943 µM | GI50 [8]: 1.26 µM | TGI [8]: 2.94 µM | GI50 [9]: 0.502 µM | TGI [9]: 1.18 µM | GI50 [10]: 0.567 µM | TGI [10]: 1.1 µM
